These results are taken from patent US20040146617A1, “Compositions and methods for suppressing cracking and water loss from cherries” (priority 1998, published 2004).

The experiment deals with cherries. Briefly: Cherry firmness after cold storage, pre-harvest application. Conditions: after 12 days of cold storage (33° F.); sprayed 2 weeks before harvest; calcium chloride 0.5% w/v, Formulation III 10% (v/v). It counts as in vivo. As to the method: 1. Effect of Pre-Harvest Application of Matrix III and Calcium on Firmness. The effect of the Formulation III (Matrix III, see EXAMPLE 15) on cherry firmness was determined in the lab with a firmness meter. Firmness is a function of water content. […] After drying, a 10% (v/v) dilution of Formulation III was applied to half of the trees. […] Increased firmness was also observed in a larger orchard trial with ‘Bing’ and ‘Van’ cherries.

For `[Ca+2].[Cl-].[Cl-]` [calcium chloride, Calcium chloride], the firmness is listed as 277.1 mg/mm^2.
